Measurements published in patent publication US20040229817A1, “Inhibitors of Hepatitis C virus, compositions and treatments using the same” (priority 2003, published 2004).
Where two headings read alike, the source gives them in different places.

Columns and labels:
HCV reporter replicon = HCV reporter replicon assay, antiviral activity (dual luciferase); format: cell-based; conditions: for EC50: Hepatitis C virus
Procedure: (§1) All compounds were tested in an HCV reporter replicon assay. Briefly, a reporter replicon containing Huh-7 hepatoma cells was grown in DMEM (Invitrogen, Carlsbad, Calif.) and seeded in 96-well black wall, clear-bottom plates (Costar®; Coming Incorporated). Cells were allowed to settle at 37° C., 5% CO2 for 30 minutes. The compounds were serially diluted in separate 96 well plates and […] of each concentration was added to the appropriate well in triplicate. The plates are incubated at 37° C., 5% CO2 for three days.
(§2) Following three days of incubation, the media was aspirated from the wells and cells are washed with 100 μl PBS. After removing the PBS, 20 μl of 1× Passive Lysis Buffer (Promega Corp., Madison, Wis.) is added to each well, and the cells are allowed to lyse at room temperature for 15 minutes. Antiviral activity and cytotoxicity is measured following lysis using the dual luciferase kit (Promega Corp., Madison, Wis.). The percent antiviral inhibition and percent cytotoxicity for each concentration is calculated after subtracting the background values of media only wells from wells containing cells, and subtratcting 100 from the percent ratio of the value in the compound well to the cell only control well.

in vitro = format: cell-based; conditions: human, three days incubation
Procedure: as §1, §2

[1] = Solubility (Sol.) reported with the replicon assay
[2] = 7-pt Assay, value marked (exp), read-out: EC50 (exp)
[3] = Huh-7, 72 h, Extended 8-pt Assay, replicon-containing Huh-7 cells, three days incubation, read-out: EC50
[4] = Huh-7, 72 h, 7-pt Assay, replicon-containing Huh-7 cells, three days incubation, read-out: EC50

| SMILES | CC50/EC50 (HCV reporter replicon; 7-pt Assay) | EC50 (HCV reporter replicon; [2]) [µM] | EC50 (HCV reporter replicon; [3]) [µM] | CC50 at 3 days (in vitro; 7-pt Assay) [µM] | CC50 at 3 days (in vitro; Extended 8-pt Assay) [µM] | Sol. ([1]; 7-pt Assay) [µM] | Sol. ([1]; 7-pt Assay, unit not given) | Sol. ([1]; Extended 8-pt Assay) [µM] | EC50 (HCV reporter replicon; [4]) [µM] |
| --- | --- | --- | --- | --- | --- | --- | --- | --- | --- |
| O=C(NO)[C@H]1CCCC[C@@H]1SCCc1ccc(-c2ccccc2)cc1 (relative stereo) [Example 6, trans-2-(Biphenyl-4-yl-ethylsulfanyl)cyclohexanecarboxylic Acid Hydroxyamide] | 3265 | 0.034 | 0.05 | 111 | 99 | >320 | 320 | >320 |  |
| O=C(NO)C1=C(SCCc2ccc(-c3ccccc3)cc2)CCCC1 [Example 1, 2-(2-Biphenyl-4-yl-ethylsulfanyl)-cyclohex-1-ene-carboxylic Acid Hydroxyamide] | 15 |  | 1.6 | 32 | 31 | <320 | 100 | >320 | 2.1 |
| O=C(NO)[C@@H]1CCCC[C@@H]1SCCc1ccccc1 [Example 3] | 130 |  | 1.9 | ≥ 320 | 211 | >320 | 320 | >320 | 2.5 |
| O=C(NO)[C@@H]1CCCC[C@H]1S(=O)(=O)CCc1ccccc1 [Example 5, trans-2-Phenylethanesulfonyl-cyclohexanecarboxylic Acid Hydroxyamide] | 1333 | 0.24 | 0.31 | > 320 | > 320 | >320 | 320 | >320 |  |
| COC(=O)c1ccc(NC(=O)[C@H](CC(C)C)NC(=O)[C@@H](CC(=O)NO)c2ccccc2)cc1 [Example 8, methyl 4-({N-[(2S)-4-(hydroxyamino)-4-oxo-2-phenylbutanoyl]-L-leucyl}amino)benzoate] | 218 |  | 1.2 | > 320 | > 320 | <100 | 32 | <320 | 1.5 |
| CC(=O)N1CCN(S(=O)(=O)c2ccc(Oc3ccccc3)cc2)C(C(=O)NO)C1 (stereo not shown) [Example 9, 4-acetyl-N-hydroxy-1-[(4-phenoxyphenyl)sulfonyl]piperazine-2-carboxamide] | 835 | 0.097 | 0.018 | 81 | 79 | >320 | 320 | >320 |  |
| CC(C)(C)OC(=O)N1CCN(S(=O)(=O)c2ccc(Oc3ccccn3)cc2)[C@@H](C(=O)NO)C1 [Example 10, tert-butyl (3R)-3-[(hydroxyamino)carbonyl]-4-{[4-(pyridin-2-yloxy)phenyl]sulfonyl}piperazine-1-carboxylate] | 1937 | 0.15 | 0.19 | 294 | 224 | >320 | 320 | >320 |  |
| CS(=O)(=O)N1CCN(S(=O)(=O)c2ccc(Oc3ccc(F)cc3)cc2)[C@@H](C(=O)NO)C1 [Example 11, (2R)-1-{[4-(4-fluorophenoxy)phenyl]sulfonyl}-N-hydroxy-4-(methylsulfonyl)piperazine-2-carboxamide] | 444 | 0.027 | 0.049 | 12 | 15 | >320 | 320 | >320 |  |
| CC1(C)SCCN(S(=O)(=O)c2ccc(Oc3ccncc3)cc2)[C@H]1C(=O)NO [Example 12, (3S)—N-hydroxy-2,2-dimethyl-4-{[4-(pyridin-4-yloxy)phenyl]sulfonyl}thiomorpholine-3-carboxamide] | 880 |  | 0.26 | 320 | > 320 | >320 | 320 | >320 | 0.36 |
| O=C(NO)C1CCCCN1S(=O)(=O)c1ccc(Sc2ccncc2)cc1 (stereo not shown) [Example 13, N-hydroxy-1{[4-(pyridin-4-ylthio)phenyl]sulfonyl}piperidine-2-carboxamide] | 667 |  | 0.35 | 293 | 211 | >320 | 320 | >320 | 0.44 |
| Cc1cc(CSC(C)(C)[C@@H](NS(=O)(=O)c2ccc(Oc3ccc(Br)cc3)cc2)C(=O)NO)no1 [Example 14, N^2-{[4-(4-bromophenoxy)phenyl]sulfonyl}-N^1-hydroxy-3{[(5-methylisoxazol-3-yl)methyl]thio}-D-valinamide] | 49 |  | 1.9 | 78 | 41 | >320 | 320 | <320 | 1.57 |
